Where two headings read alike, the source gives them in different places.
Assays:
[1] = target: T1, mineralocorticoid receptor (MR) (Homo sapiens, UniProt P08235); assay: Assay for agonist activity on mineralocorticoid receptor (luciferase reporter, HEK293 cells transfected with pBIND-MR plasmid); format: cell-based; settings: for Target selectivity MR/GR: ratio of EC50 values; for target selectivity: MR/GR and PR/GR, same experimental conditions
T1 sequence (P08235 726-984): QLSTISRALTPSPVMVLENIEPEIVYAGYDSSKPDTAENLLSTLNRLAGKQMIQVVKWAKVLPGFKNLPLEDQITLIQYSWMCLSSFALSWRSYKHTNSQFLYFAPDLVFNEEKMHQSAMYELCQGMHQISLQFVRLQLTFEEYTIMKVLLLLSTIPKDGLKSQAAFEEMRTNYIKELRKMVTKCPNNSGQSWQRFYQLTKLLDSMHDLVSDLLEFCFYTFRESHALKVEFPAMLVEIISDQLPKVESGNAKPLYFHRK
How it was run: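 HEK293 cells transiently transfected with pBIND-MR or pBIND-PR, seeded in phenol red-free DMEM with 5% charcoal-stripped serum. Compounds tested as 12-point 4-fold dilutions from 50 µM in duplicate, 0.1% DMSO blank. Luciferase luminescence read, EC50 by nonlinear fit.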

[2] = test system: IL-17; assay: Psoriasis experiment (imiquimod model): inflammatory cytokine in serum (ELISA); format: in vivo, mice; settings: for level of IL-17 / inflammatory cytokines in psoriasis model mice: compared with the model group; for IL-17: serum, day 8 of modeling, 0.2 g cream per mouse daily for 7 days
Experimental: Positive control drug: Fluticasone Propionate Cream (specification: 0.05% × 15 g, Zhejiang Xianju Pharmaceutical Co. Ltd., Lot No. 211106), stored at room temperature protected from light until use.
Adult mice were selected, and the skin of 2 cm × 3 cm on the back of mice was locally depilated. The mice in the model group and drug administration group were applied with 62.5 mg of 5% imiquimod cream on their back for modeling, while the mice in the blank control group were applied with medical petroleum jelly on their back daily. The above procedures were performed once a day for 7 consecutive days.
The mice in the drug administration group were applied with the corresponding drugs on their backs daily at a dose of 0.2 g per mouse, while the blank control group and the model group were only applied with 0.2 g of the test sample drug matrix. One hour after drug administration, the drugs were wiped off with sterile cotton swabs, followed by the application of imiquimod. The above procedures were performed once a day for 7 consecutive days.
After the PASI scoring on day 8 of modeling, blood was collected from the orbital sinus of mice and centrifuged at 3000 rpm for 10 min. The supernatant was extracted to measure the level of IL-17. All procedures were performed following the instructions of the ELISA kit.
Statistical analysis was performed using SPSS software, and the results were expressed as mean ± standard deviation. One-way ANOVA was used for intergroup comparisons. For data with homogeneous variance, the LSD test was used; for data with heterogeneous variance, the Dunnett-t test was used. A value of P < 0.05 was considered statistically significant.

[3] = Pharmacokinetic (PK) experiment in rats; format: in vivo, male SD rats; settings: same experimental conditions
Experimental: Pharmacological Example 11. Pharmacokinetic (PK) Experiment in Rats
The solution was prepared before administration.
Animals: 6 male SD rats, SPF grade (Beijing Vital River Laboratory Animal Technology Co., Ltd.).
Animal grouping: The animals were weighed prior to administration, and the dosage was calculated based on body weight. The animals in the oral administration group were fasted overnight (10-14 hours) before administration, and food was reintroduced 4 hours post-administration. Table 23. Animal grouping and drug administration dosages for pharmacokinetic (PK) experiment in rats
Blood collection time points: Blood was collected from the jugular vein at 2 min, 5 min, 15 min, 30 min, 1 h, 2 h, 4 h, 8 h, and 24 h after administration. Approximately 0.25 mL of blood was collected for each sample, anticoagulated with heparin sodium, and then placed on ice immediately.
Plasma sample processing: Blood samples were placed on ice after collection and centrifuged to separate plasma within 1 hour (centrifugation conditions: 6000 rpm, 3 minutes, 2-8 °C ). Plasma samples were stored in a -80°C freezer before analysis.
Data processing: Pharmacokinetic parameters were calculated using Phoenix WinNonlin 8.2.0 based on the plasma drug concentration data at different time points.

[4] = test system: inflammatory cytokines (TNF-α); assay: Anti-uveitis pharmacodynamic experiment (LPS model): inflammatory cytokines in aqueous humor (ELISA); format: in vivo, male SD rats; settings: values not given
Experimental: Pharmacological Example 5. Pharmacodynamic Experiment on Anti-Uveitis
Test samples: Compounds 23 and 26 were prepared as 5 mg/5 mL ophthalmic suspensions with reference to the formulation of Fluorometholone Eye Drops, and stored at room temperature protected from light until use.
Positive control drug: Fluorometholone Eye Drops (specification: 5 mL/5 mg; Santen Pharmaceutical (CHINA) Co., Ltd.; Lot No. : J20180068) was used as the positive control drug and stored at room temperature protected from light until use.
Fifty male SD rats underwent a one-week adaptive feeding period. The animals were randomly divided into 5 groups: Group 1 served as the blank control group, and Groups 2 to 5 were the model group, fluorometholone group, compound 23 group, and compound 26 group, respectively. Groups 2 to 5 were used to establish rat uveitis models by single subcutaneous injection of 1 mg/kg LPS (Salmonella; Sigma; Lot No. 0000164114) into the plantar tissue of the hindpaw. Salmonella endotoxin was dissolved in normal saline to prepare an injection solution at a concentration of 2 mg/mL, which was injected subcutaneously at 1 mg/kg into the plantar tissue of one paw of the rats. Group 1 was injected with an equal volume of normal saline.
After modeling, 40 µL of normal saline was administered to the eyes (bilateral) of the rats in the blank control group and model group, and 40 µL of the corresponding drugs were administered to the eyes (bilateral) of the […] in the compound 23 group, compound 26 group, and positive drug fluorometholone group, 3 times a day for 2 days. Table 8. Animal grouping and drug administration dosages
Thirty hours after modeling, aqueous humor was collected from both eyes of rats, and partial eyeball tissues of rats were collected. The level of the inflammatory cytokines (TNF-α) was detected using a rat ELISA assay kit.
Statistical analysis was performed using SPSS software. Measurement data were expressed as mean ± standard deviation. One-way ANOVA was used for intergroup comparisons. For data with homogeneous variance, LSD test was used; for data with heterogeneous variance, Dunnett-t test was used. A value of P < 0.05 was considered statistically significant.

[5] = test system: uveitis model rats; assay: Anti-uveitis pharmacodynamic experiment (LPS model): ocular pathological score; format: in vivo, male SD rats; settings: for ocular abnormalities / ocular pathological score: compared with the model group
Experimental: Fifty male SD rats underwent a one-week adaptive feeding period. […] Groups 2 to 5 were used to establish rat uveitis models by single subcutaneous injection of 1 mg/kg LPS (Salmonella; Sigma; Lot No. 0000164114) into the plantar tissue of the hindpaw. Salmonella endotoxin was dissolved in normal saline to prepare an injection solution at a concentration of 2 mg/mL, which was injected subcutaneously at 1 mg/kg into the plantar tissue of one paw of the rats. Group 1 was injected with an equal volume of normal saline.
At the end of the experiment, photos of the rats' eyes were taken using a slit-lamp microscope, and the differences in ocular lesions of rats among groups were compared and analyzed.

[6] = EC50 of agonist activity, HEK293 reporter cells, top concentration 50 µM, read-out: Nuclear receptor enzyme activity (nM) MR

SMILES | EC50 [1, 6] [nM] | Target selectivity MR/GR [1] | level of IL-17 / inflammatory cytokines in psoriasis model mice [2] | IL-17 [2] [pg/mL] | pharmacokinetic properties (plasma clearance rate, systemic exposure) [3] | inflammatory cytokines in aqueous humor [4] | Ocular pathological score ([5]; 1 mg/mL, 40 µL/eye, 3 times a day for 2 days) | ocular abnormalities / ocular pathological score [5] | EC50 [1] [nM] | target selectivity [1]
C[C@]12C=CC(=O)C=C1CC[C@H]1[C@@H]3C[C@H]4OC(c5ccc(CSC6CCOC6=O)cc5)O[C@@]4(C(=O)CO)[C@@]3(C)C[C@H](O)[C@@]12Cl (stereo partly drawn) [Compound 23, (6aS,6bR,7S,8aS,8bS,11aR,12aS,12bS)-6b-Chloro-7-hydroxy-8b-(2-hydroxyacetyl)-6a,8a-dimethyl-10-(4-(((2-oxotetrahydrofuran-3-yl)thio)methyl)phenyl)-1,2,6a,6b,7,8,8a,8b,11a,12,12a,12b-do decahydro-4H-naphtho[2',1':4,5]indeno[1,2-d][1,3]dioxol-4-one] | > 50000 | > 2.4×10^5 | significantly decreased the level of IL-17 | 19.56 ± 8.13 | pharmacokinetic properties similar to those of compound 8 | suppressed inflammatory cytokines in aqueous humor | 7.0 ± 0.5 | significantly improved the ocular abnormalities and reduced the ocular pathological score | – | –
C[C@]12C=CC(=O)C=C1[C@@H](F)C[C@H]1[C@@H]3C[C@H]4OC(c5ccc(CSC6CCOC6=O)cc5)O[C@@]4(C(=O)OCF)[C@@]3(C)C[C@H](O)[C@@]12F (stereo partly drawn) [Compound 36, Fluoromethyl (2S,6aS,6bR,7S,8aS,8bS,11aR,12aS,12bS)-2,6b-difluoro-7-hydroxy-6a,8a-dimethyl-4-oxo-10-(4-( ((2-oxotetrahydrofuran-3-yl)thio)methyl)phenyl)-1,2,4,6a,6b,7,8,8a,11a,12,12a,12b-dodecahydro-8bH-naphtho[2',1':4,5]indeno[1,2-d][1,3]dioxole-8b-carboxylate] | – | > 4.2×10^5 | significantly inhibited inflammatory cytokines in the skin of psoriasis model mice | – | pharmacokinetic properties similar to those of compound 8 | suppressed inflammatory cytokines in aqueous humor | – | significantly improved ocular abnormalities | > 50000 | –
C[C@]12C=CC(=O)C=C1CC[C@H]1[C@@H]3C[C@H]4OC(c5ccc(CSC6CCOC6=O)cc5)O[C@@]4(C(=O)CO)[C@@]3(C)C[C@H](O)[C@@]12F (stereo partly drawn) [Compound 17, (6aS,6bR,7S,8aS,8bS,11aR,12aS,12bS)-6b-Fluoro-7-hydroxy-8b-(2-hydroxyacetyl)-6a,8a-dimethyl-10-(4-(((2-oxotetrahydrofuran-3-yl)thio)methyl)phenyl)-1,2,6a,6b,7,8,8a,8b,11a,12,12a,12b-do decahydro-4H-naphtho[2',1':4,5]indeno[1,2-d][1,3]dioxol-4-one] | > 50000 | > 1.7×10^5 | significantly decreased the level of IL-17 | 31.30 ± 14.99 | pharmacokinetic properties similar to those of compound 8 | suppressed inflammatory cytokines in aqueous humor | – | significantly improved ocular abnormalities | – | –
C[C@]12C=CC(=O)C=C1CC[C@H]1[C@@H]3C[C@H]4OC(c5ccc(CSC6CCOC6=O)nc5)O[C@@]4(C(=O)CO)[C@@]3(C)C[C@H](O)[C@@]12Cl (stereo partly drawn) [Compound 48, (6aS,6bR,7S,8aS,8bS,11aR,12aS,12bS)-6b-Chloro-7-hydroxy-8b-(2-hydroxyacetyl)-6a,8a-dimethyl-10-(6-(((2-oxotetrahydrofuran-3-yl)thio)methyl)pyridin-3-yl)-1,2,6a,6b,7,8,8a,8b,11a,12,12a,12 b-dodecahydro-4H-naphtho[2',1':4,5]indeno[1,2-d][1,3]dioxol-4-one] | – | – | significantly inhibited inflammatory cytokines in the skin of psoriasis model mice | – | pharmacokinetic properties similar to those of compound 8 | suppressed inflammatory cytokines in aqueous humor | – | significantly improved ocular abnormalities | – | target selectivity comparable to that of compound 23
C[C@]12C=CC(=O)C=C1CC[C@H]1[C@@H]3C[C@H]4OC(c5ccc(CNC6COC(=O)C6)cc5)O[C@@]4(C(=O)CO)[C@@]3(C)C[C@H](O)[C@@]12F (stereo partly drawn) [Compound 21, (6aS,6bR,7S,8aS,8bS,11aR,12aS,12bS)-6b-Fluoro-7-hydroxy-8b-(2-hydroxyacetyl)-6a,8a-dimethyl-10-(4-(((5-oxotetrahydrofuran-3-yl)amino)methyl)phenyl)-1,2,6a,6b,7,8,8a,8b,11a,12,12a,12b-dodecahydro-4H-naphtho[2',1':4,5]indeno[1,2-d][1,3]dioxol-4-one] | – | – | significantly inhibited inflammatory cytokines in the skin of psoriasis model mice | – | pharmacokinetic properties similar to those of compound 8 | suppressed inflammatory cytokines in aqueous humor | – | significantly improved ocular abnormalities | – | target selectivity comparable to that of compound 23
C[C@]12C=CC(=O)C=C1[C@@H](F)C[C@H]1[C@@H]3C[C@H]4OC(c5ccc(CSC6CCOC6=O)cc5)O[C@@]4(C(=O)SCC#N)[C@@]3(C)C[C@H](O)[C@@]12F (stereo partly drawn) [Compound 35, S-(Cyanomethyl) (2S,6aS,6bR,7S,8aS,8bS,11aR,12aS,12bS)-2,6b-difluoro-7-hydroxy-6a,8a-dimethyl-4-oxo-10-(4-( ((2-oxotetrahydrofuran-3-yl)thio)methyl)phenyl)-1,2,4,6a,6b,7,8,8a,11a,12,12a,12b-dodecahydro-8bH-naphtho[2',1':4,5]indeno[1,2-d][1,3]dioxole-8b-carbothioate] | – | > 2.4×10^5 | significantly inhibited inflammatory cytokines in the skin of psoriasis model mice | – | pharmacokinetic properties similar to those of compound 8 | suppressed inflammatory cytokines in aqueous humor | – | significantly improved ocular abnormalities | > 50000 | –

Source: patent EP4635969A1, “NOVEL GLUCOCORTICOID, METHOD FOR PREPARING SAME, AND USE THEREOF” (Tianjin Pharmaceutical Biotechnology Co., Ltd., priority 2022, dated 2024)
